Measurements taken from patent publication US10800791B2, “Triazole ACC inhibitors and uses thereof” (Gilead Apollo, LLC, priority 2015, dated 2020).
pIC50: −log10 of the molar value. Values after ≈ are worked out from the molar mass of the structure shown. Read-outs that look alike come from different tables or passages of the source.

Tests used:
fungal (fACC2) = fungal (fACC2) (UniProt Q00955); conditions: read-out: fACC2 (in vitro ACC2 Inhibition Assay, IC50), ADP-Glo, 5 nM ACC2, 20 μM ATP, 20 μM acetyl-CoA
human (hACC2) = human (hACC2) (Homo sapiens, UniProt O00763); assay: In vitro ACC inhibition assay (ADP-Glo), hACC2; format: biochemical; conditions: 5 nM ACC2, 20 μM ATP, 20 μM acetyl-CoA
Protocol: The detailed procedure is as follows. […] 10 μL ADP glo reagent was added. […] 20 μL kinase detection reagent was added.

C. krusei = assay: Antifungal Activity Assay (broth microtiter MIC), C. krusei; format: cell-based, Candida krusei; conditions: 3 replicates, MIC recorded at 48 h; for MIC: Pichia kudriavzevii, ATCC6258, 48 h, ATCC 6258, read-out: MIC, C. krusei ATCC 6258
Protocol: (§1) Compounds of the present invention were evaluated in an Antifungal Activity Assay. An exemplary procedure for the assay, which measures the susceptibility of various Candida species to antifungal compounds, follows. Compounds to be tested (including fluconazole and amphotericin B) were dissolved in DMSO to obtain a solution having a concentration of 1 mg/mL. These stock solutions were sterile filtered using a 0.22 um nylon syringe filter, then diluted in sterile water to achieve a final concentration of 128 μg/mL.
(§2) All species were grown from frozen stock by directly plating on to freshly prepared Sabouraud Dextrose agar (BD, Difco) and incubated overnight in ambient air at 35° C. for 24 h. A direct suspension was prepared in RPMI 1640+MOPS (Lonza, Biowhittaker) by taking individual colonies from the overnight cultures using sterile swabs soaked in sterile saline. The concentration of the suspension was determined using pre-determined standard curves. These suspensions were then diluted down to 5×10^3 CFU/mL to achieve a final concentration of 2.5×10^3 CFU/mL once added to the microtiter plate as per CLSI guidelines (M27-A3, Vol. 28 No. 14).
(§3) Broth microtiter MIC challenge plates were prepared following CLSI guidelines (M27-A3, Vol. 28 No. 14). The original CLSI guidelines focused on reading Candida MICs after 48 h of incubation. As reading after only 24 h offers a clear advantage of patient care, QC limits are being established for all drugs at 24 h. That being said there are no known interpretive breakpoints for amphotericin B at 24 h and the current fluconazole interpretive breakpoints are based on a 48 h reading. The MICs for the test compounds were recorded at 48 h. All MIC determinations were achieved by visually comparing the growth found in the antibiotic challenged wells to that of the growth control.

C. parapsilosis = assay: Antifungal Activity Assay (broth microtiter MIC), C. parapsilosis; format: cell-based, Candida parapsilosis; conditions: 3 replicates, MIC recorded at 48 h; for MIC: Lodderomyces parapsilosis, ATCC22019, 48 h, ATCC 22019, read-out: MIC, C. parapsilosis ATCC 22019
Protocol: as §1, §2, §3

C. albicans = assay: Antifungal Activity Assay (broth microtiter MIC), C. albicans; format: cell-based, Candida albicans; conditions: 3 replicates, MIC recorded at 48 h; for MIC: Candida albicans, ATCC90028, 48 h, ATCC 90028, read-out: MIC, C. albicans ATCC 90028
Protocol: as §1, §2, §3

Chain of fungal (fACC2) (Q00955 whole entry): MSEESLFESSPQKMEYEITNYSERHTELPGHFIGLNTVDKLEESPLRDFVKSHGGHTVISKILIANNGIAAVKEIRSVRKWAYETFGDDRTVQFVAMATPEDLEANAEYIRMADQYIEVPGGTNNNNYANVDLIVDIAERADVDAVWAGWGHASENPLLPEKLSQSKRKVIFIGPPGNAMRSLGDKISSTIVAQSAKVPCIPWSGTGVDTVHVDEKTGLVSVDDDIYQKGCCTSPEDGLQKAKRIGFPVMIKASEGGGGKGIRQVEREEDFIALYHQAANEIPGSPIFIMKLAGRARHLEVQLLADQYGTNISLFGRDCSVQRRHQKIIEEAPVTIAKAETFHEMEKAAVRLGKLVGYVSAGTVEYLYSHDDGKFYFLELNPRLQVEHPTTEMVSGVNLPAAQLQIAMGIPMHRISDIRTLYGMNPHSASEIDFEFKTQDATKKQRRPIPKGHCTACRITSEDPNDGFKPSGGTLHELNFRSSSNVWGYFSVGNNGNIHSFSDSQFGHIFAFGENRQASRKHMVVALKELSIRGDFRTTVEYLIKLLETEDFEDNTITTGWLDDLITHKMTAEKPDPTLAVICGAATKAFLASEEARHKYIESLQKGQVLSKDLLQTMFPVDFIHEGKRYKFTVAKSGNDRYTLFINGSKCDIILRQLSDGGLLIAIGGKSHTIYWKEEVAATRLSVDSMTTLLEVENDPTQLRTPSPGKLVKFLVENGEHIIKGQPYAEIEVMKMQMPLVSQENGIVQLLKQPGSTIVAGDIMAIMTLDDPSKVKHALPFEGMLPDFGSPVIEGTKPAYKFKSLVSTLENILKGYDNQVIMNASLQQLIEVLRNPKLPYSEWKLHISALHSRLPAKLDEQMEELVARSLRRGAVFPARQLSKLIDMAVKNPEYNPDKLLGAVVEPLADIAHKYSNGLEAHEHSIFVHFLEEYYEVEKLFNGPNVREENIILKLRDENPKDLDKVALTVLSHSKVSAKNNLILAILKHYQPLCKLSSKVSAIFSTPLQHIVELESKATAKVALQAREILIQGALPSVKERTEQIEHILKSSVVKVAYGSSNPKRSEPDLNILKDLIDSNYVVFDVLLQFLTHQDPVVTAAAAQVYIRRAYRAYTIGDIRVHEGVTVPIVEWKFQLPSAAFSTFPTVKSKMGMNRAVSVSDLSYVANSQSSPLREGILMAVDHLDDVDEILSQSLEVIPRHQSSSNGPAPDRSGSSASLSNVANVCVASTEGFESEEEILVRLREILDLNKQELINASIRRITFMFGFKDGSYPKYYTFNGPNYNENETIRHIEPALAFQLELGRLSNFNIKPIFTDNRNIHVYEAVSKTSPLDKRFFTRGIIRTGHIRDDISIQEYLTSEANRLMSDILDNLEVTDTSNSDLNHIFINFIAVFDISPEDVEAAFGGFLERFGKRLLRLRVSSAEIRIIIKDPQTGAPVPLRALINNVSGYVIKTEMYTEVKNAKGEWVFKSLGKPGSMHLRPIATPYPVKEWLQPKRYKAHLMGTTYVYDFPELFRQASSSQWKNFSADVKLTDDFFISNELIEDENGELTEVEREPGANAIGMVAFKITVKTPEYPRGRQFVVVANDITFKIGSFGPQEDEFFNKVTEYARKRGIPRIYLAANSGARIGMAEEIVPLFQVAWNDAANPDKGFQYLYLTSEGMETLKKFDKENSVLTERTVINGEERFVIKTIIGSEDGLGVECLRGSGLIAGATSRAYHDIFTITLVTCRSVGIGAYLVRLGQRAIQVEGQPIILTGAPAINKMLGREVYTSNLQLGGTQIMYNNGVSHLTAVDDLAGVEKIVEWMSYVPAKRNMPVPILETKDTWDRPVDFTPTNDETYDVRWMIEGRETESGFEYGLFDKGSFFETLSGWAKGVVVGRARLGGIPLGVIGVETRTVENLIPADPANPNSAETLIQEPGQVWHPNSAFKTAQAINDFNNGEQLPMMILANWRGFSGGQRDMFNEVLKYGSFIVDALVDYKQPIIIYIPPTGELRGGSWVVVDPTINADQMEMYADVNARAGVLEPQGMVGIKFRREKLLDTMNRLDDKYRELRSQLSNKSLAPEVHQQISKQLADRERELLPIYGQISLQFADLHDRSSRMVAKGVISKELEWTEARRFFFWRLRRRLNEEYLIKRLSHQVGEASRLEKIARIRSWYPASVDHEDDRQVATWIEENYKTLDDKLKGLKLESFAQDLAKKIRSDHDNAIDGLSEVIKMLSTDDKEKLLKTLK
Chain of human (hACC2) (O00763 whole entry): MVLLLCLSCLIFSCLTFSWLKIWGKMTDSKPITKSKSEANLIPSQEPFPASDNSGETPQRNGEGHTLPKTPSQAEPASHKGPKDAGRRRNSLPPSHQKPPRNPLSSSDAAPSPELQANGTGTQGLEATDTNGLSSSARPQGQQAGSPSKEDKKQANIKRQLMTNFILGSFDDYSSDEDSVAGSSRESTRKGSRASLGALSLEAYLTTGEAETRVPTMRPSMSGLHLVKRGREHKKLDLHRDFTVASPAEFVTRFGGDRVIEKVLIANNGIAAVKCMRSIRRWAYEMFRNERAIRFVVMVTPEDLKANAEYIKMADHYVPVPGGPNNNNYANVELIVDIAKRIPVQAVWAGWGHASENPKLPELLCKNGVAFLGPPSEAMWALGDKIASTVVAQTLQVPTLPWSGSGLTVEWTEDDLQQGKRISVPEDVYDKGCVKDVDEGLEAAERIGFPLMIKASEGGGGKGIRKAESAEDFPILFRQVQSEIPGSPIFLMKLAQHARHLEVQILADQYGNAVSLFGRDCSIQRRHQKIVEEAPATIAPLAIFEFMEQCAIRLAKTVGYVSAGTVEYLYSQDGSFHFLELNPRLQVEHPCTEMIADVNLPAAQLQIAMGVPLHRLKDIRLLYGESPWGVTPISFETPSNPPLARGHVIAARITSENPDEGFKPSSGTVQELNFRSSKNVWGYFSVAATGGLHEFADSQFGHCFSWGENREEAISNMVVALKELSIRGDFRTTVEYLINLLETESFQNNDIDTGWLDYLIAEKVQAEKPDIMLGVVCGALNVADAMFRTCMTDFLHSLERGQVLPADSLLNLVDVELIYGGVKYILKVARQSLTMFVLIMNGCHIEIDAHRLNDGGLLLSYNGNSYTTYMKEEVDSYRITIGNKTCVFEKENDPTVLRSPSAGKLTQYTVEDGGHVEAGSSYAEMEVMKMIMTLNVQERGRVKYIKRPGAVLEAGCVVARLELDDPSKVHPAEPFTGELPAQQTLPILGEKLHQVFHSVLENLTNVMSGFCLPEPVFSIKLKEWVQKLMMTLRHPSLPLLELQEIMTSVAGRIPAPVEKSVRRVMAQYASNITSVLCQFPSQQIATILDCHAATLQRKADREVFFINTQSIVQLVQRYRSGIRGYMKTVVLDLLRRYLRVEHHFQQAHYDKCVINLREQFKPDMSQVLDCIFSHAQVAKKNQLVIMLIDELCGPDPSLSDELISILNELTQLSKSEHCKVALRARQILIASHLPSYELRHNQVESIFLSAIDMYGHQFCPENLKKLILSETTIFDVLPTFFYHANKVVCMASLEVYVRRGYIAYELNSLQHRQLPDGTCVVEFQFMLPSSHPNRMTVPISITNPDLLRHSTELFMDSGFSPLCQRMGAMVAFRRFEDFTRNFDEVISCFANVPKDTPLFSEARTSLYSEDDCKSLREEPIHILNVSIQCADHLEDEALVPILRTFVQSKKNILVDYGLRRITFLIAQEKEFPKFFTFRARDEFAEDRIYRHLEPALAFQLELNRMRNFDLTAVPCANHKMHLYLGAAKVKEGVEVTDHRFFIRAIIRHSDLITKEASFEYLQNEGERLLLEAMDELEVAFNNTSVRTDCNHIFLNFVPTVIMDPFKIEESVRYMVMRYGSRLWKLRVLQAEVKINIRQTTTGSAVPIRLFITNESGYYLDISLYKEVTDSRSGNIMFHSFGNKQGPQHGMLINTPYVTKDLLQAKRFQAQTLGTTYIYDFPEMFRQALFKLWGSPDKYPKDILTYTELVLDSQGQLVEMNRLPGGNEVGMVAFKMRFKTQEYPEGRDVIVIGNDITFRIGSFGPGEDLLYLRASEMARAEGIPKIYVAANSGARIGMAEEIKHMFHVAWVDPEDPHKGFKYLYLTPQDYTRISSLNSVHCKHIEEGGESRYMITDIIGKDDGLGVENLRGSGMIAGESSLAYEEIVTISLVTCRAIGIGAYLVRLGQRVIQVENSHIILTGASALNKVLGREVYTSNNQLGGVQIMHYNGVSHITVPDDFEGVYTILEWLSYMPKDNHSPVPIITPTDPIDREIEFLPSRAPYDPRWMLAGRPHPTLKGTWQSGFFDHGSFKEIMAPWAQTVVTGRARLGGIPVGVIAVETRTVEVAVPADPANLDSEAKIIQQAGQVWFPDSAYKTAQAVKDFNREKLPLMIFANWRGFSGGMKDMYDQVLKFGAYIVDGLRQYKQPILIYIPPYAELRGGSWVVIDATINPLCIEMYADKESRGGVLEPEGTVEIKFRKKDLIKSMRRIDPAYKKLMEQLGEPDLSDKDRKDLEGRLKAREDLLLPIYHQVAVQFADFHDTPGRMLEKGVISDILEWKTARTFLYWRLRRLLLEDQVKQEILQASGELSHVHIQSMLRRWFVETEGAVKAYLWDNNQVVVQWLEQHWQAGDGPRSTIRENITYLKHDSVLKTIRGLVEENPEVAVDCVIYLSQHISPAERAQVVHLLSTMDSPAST

SMILES | pIC50 (fungal (fACC2); Table 2a) | pIC50 (fungal (fACC2); Table 2b, additional results) | pIC50 (human (hACC2); Table 2a) | pIC50 (human (hACC2); Table 2b, additional results) | MIC, C. krusei ATCC 6258 (C. krusei; Table 3a) | MIC, C. krusei ATCC 6258 (C. krusei; Table 3b (additional results)) | MIC, C. parapsilosis ATCC 22019 (C. parapsilosis; Table 3a) | MIC, C. parapsilosis ATCC 22019 (C. parapsilosis; Table 3b (additional results)) | MIC, C. albicans ATCC 90028 (C. albicans; Table 3a) | MIC, C. albicans ATCC 90028 (C. albicans; Table 3b (additional results)) | MIC (C. krusei; Table 3a) [µg/mL] | MIC (C. krusei; Table 3b (additional results)) [µg/mL] | MIC (C. parapsilosis; Table 3a) [µg/mL] | MIC (C. parapsilosis; Table 3b (additional results)) [µg/mL] | MIC (C. albicans; Table 3a) [µg/mL] | MIC (C. albicans; Table 3b (additional results)) [µg/mL]
COCCO[C@@H](Cn1c(=O)n(C(C)(C)C(=O)NC2CCC2)c(=O)c2c(C)c(-n3nccn3)sc21)c1cc(F)ccc1OC [Compound I-102] | 8.30 to 9.00 | 8.30 to 9.00 | 8.30 to 9.00 | 8.30 to 9.00 | A (MIC of 0.25-1.0 μg/mL) | A (MIC of 0.25-1.0 μg/mL) | A (MIC of 0.25-1.0 μg/mL) | A (MIC of 0.25-1.0 μg/mL) | A (MIC of 0.25-1.0 μg/mL) | C (MIC of 2.01-4.0 μg/mL) | – | – | – | – | – | –
COCCO[C@@H](Cn1c(=O)n(C(C)(C)C(=O)NC2CCCCC2)c(=O)c2c(C)c(-n3nccn3)sc21)c1cc(F)ccc1OC [Compound I-103] | 8.30 to 9.00 | 8.30 to 9.00 | 7.40 to 8.00 | 7.40 to 8.00 | – | – | – | – | – | – | 0.25 to 1 (≈ 0.389 to 1.56 µM) | 0.25 to 1 (≈ 0.389 to 1.56 µM) | 0.25 to 1 (≈ 0.389 to 1.56 µM) | 0.25 to 1 (≈ 0.389 to 1.56 µM) | 1.1 to 2 (≈ 1.71 to 3.11 µM) | 1.01 to 2 (≈ 1.57 to 3.11 µM)
COc1ccc(F)cc1[C@H](Cn1c(=O)n(C(C)(C)C(=O)NC(C)C)c(=O)c2c(C)c(-n3nccn3)sc21)OCCC(C)=O [Compound I-104] | 8.30 to 9.00 | 8.30 to 9.00 | 8.30 to 9.00 | 8.30 to 9.00 | – | – | – | – | – | – | 0.06 to 0.24 (≈ 0.0976 to 0.39 µM) | 0.25 to 1 (≈ 0.407 to 1.63 µM) | 0.25 to 1 (≈ 0.407 to 1.63 µM) | 0.25 to 1 (≈ 0.407 to 1.63 µM) | 0.25 to 1 (≈ 0.407 to 1.63 µM) | 0.25 to 1 (≈ 0.407 to 1.63 µM)
COc1ccc(F)cc1[C@H](Cn1c(=O)n(C(C)(C)C(=O)NC2CCC2)c(=O)c2c(C)c(-n3nccn3)sc21)OCCC(C)=O [Compound I-105] | 9.00 to 9.40 | 9.00 to 9.52 | 8.30 to 9.00 | 8.30 to 9.00 | – | – | – | – | – | – | 0.06 to 0.24 (≈ 0.0957 to 0.383 µM) | 0.25 to 1 (≈ 0.399 to 1.6 µM) | 0.25 to 1 (≈ 0.399 to 1.6 µM) | 0.25 to 1 (≈ 0.399 to 1.6 µM) | 0.25 to 1 (≈ 0.399 to 1.6 µM) | 1.01 to 2 (≈ 1.61 to 3.19 µM)
COc1ccc(F)cc1[C@H](Cn1c(=O)n(C(C)(C)C(=O)NC2CCCCC2)c(=O)c2c(C)c(-n3nccn3)sc21)OCCC(C)=O [Compound I-106] | 8.30 to 9.00 | 8.30 to 9.00 | 8.00 to 8.30 | 8.00 to 8.30 | – | – | – | – | – | – | 0.25 to 1 (≈ 0.382 to 1.53 µM) | 0.25 to 1 (≈ 0.382 to 1.53 µM) | 0.25 to 1 (≈ 0.382 to 1.53 µM) | 0.25 to 1 (≈ 0.382 to 1.53 µM) | 1.1 to 2 (≈ 1.68 to 3.05 µM) | 1.01 to 2 (≈ 1.54 to 3.05 µM)
Cc1c(-n2nccn2)sc2c1c(=O)n(C(C)(C)C(=O)NC(C)C)c(=O)n2C[C@H](OC1CCOCC1)c1cc(F)ccc1OCc1ccccc1 [Compound I-107] | 8.30 to 9.00 | 8.30 to 9.00 | 8.00 to 8.30 | 8.00 to 8.30 | – | – | – | – | – | – | 0.25 to 1 (≈ 0.355 to 1.42 µM) | 0.25 to 1 (≈ 0.355 to 1.42 µM) | 1.1 to 2 (≈ 1.56 to 2.84 µM) | 0.25 to 1 (≈ 0.355 to 1.42 µM) | 0.25 to 1 (≈ 0.355 to 1.42 µM) | 0.25 to 1 (≈ 0.355 to 1.42 µM)
Cc1c(-n2nccn2)sc2c1c(=O)n(C(C)(C)C(=O)NC(C)C)c(=O)n2C[C@H](OC1CCOCC1)c1cc(F)ccc1OCC1COC1 [Compound I-108] | 8.30 to 9.00 | 8.30 to 9.00 | 8.30 to 9.00 | 8.30 to 9.00 | – | – | – | – | – | – | 0.25 to 1 (≈ 0.365 to 1.46 µM) | 0.25 to 1 (≈ 0.365 to 1.46 µM) | 0.25 to 1 (≈ 0.365 to 1.46 µM) | 0.25 to 1 (≈ 0.365 to 1.46 µM) | 0.25 to 1 (≈ 0.365 to 1.46 µM) | 0.25 to 1 (≈ 0.365 to 1.46 µM)
COCCOc1ccc(F)cc1[C@H](Cn1c(=O)n(C(C)(C)C(=O)N2CCCC2)c(=O)c2c(C)c(-n3nccn3)sc21)OC1CCOCC1 [Compound I-109] | 8.30 to 9.00 | 8.30 to 9.00 | 8.30 to 9.00 | 8.30 to 9.00 | – | – | – | – | – | – | 0.25 to 1 (≈ 0.365 to 1.46 µM) | 1.01 to 2 (≈ 1.47 to 2.92 µM) | 0.25 to 1 (≈ 0.365 to 1.46 µM) | 1.01 to 2 (≈ 1.47 to 2.92 µM) | 0.25 to 1 (≈ 0.365 to 1.46 µM) | 0.25 to 1 (≈ 0.365 to 1.46 µM)
Cc1c(-n2nccn2)sc2c1c(=O)n(C(C)(C)C(=O)N1CCCC1)c(=O)n2C[C@H](OC1CCOCC1)c1cc(F)ccc1OCC1COC1 [Compound I-110] | 8.30 to 9.00 | 8.30 to 9.00 | 8.00 to 8.30 | 8.00 to 8.30 | – | – | – | – | – | – | 0.25 to 1 (≈ 0.359 to 1.44 µM) | 1.01 to 2 (≈ 1.45 to 2.87 µM) | 0.25 to 1 (≈ 0.359 to 1.44 µM) | 1.01 to 2 (≈ 1.45 to 2.87 µM) | 0.25 to 1 (≈ 0.359 to 1.44 µM) | 0.25 to 1 (≈ 0.359 to 1.44 µM)
